According to ChEMBL document CHEMBL1268980, “2-Aryl benzimidazoles: human SCD1-specific stearoyl coenzyme-A desaturase inhibitors” (Bioorg Med Chem Lett, 2010):

Key:
[1] = target: T1, Acyl-CoA desaturase 1 (Rattus norvegicus, UniProt P07308); assay: Inhibition of rat SCD1
T1 sequence (P07308 whole entry): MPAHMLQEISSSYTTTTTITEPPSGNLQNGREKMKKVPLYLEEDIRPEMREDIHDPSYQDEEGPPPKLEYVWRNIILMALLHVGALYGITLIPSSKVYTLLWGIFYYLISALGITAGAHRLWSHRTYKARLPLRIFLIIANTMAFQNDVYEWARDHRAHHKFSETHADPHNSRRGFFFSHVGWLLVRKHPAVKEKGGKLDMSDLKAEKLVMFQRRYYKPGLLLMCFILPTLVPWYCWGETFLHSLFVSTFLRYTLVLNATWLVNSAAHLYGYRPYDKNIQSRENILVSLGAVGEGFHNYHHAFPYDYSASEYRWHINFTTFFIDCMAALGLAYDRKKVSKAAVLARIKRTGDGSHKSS

[2] = target: T2, Stearoyl-CoA desaturase (Homo sapiens, UniProt O00767); assay: Inhibition of human SCD1
T2 sequence (O00767 whole entry): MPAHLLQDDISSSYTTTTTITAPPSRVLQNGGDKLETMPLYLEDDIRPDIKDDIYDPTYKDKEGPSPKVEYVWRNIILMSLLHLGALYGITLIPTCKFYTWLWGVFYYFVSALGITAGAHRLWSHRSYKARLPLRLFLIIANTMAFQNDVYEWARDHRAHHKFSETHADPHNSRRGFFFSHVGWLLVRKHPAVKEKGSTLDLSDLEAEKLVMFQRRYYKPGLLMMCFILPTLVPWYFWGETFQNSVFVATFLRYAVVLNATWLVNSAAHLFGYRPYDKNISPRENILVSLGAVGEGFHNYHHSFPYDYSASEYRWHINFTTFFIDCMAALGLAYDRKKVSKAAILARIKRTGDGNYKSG

[3] = target: T3, Stearoyl-CoA desaturase 5 (Homo sapiens, UniProt Q86SK9); assay: Inhibition of human SCD5
T3 sequence (Q86SK9 whole entry): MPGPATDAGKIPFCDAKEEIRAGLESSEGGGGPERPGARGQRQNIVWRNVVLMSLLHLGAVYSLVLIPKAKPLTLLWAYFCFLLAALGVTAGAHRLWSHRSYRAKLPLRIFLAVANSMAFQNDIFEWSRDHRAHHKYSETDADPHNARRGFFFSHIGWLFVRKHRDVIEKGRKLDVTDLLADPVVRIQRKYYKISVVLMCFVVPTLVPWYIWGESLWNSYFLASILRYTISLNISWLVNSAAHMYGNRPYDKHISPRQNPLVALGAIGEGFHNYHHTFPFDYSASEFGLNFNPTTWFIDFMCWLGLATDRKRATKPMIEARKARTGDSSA

[4] = Half life in Beagle dog at 2 mg/kg, po or 0.5 mg/kg, iv; type: ADME, organism-based, Canis lupus familiaris; settings: in vivo
[5] = Terminal half life in C57BL/6 mouse at 10 mg/kg, po or 2 mg/kg, iv; type: ADME, organism-based, C57BL6; settings: in vivo, read-out: beta t1/2 (converted)
[6] = target: Acyl-CoA (8-3)-desaturase (Homo sapiens, UniProt O60427); assay: Inhibition of Delta(5) fatty acid desaturase in human HepG2 cells; type: cell-based
Acyl-CoA (8-3)-desaturase (Homo sapiens, UniProt O60427), sequence (O60427 whole entry): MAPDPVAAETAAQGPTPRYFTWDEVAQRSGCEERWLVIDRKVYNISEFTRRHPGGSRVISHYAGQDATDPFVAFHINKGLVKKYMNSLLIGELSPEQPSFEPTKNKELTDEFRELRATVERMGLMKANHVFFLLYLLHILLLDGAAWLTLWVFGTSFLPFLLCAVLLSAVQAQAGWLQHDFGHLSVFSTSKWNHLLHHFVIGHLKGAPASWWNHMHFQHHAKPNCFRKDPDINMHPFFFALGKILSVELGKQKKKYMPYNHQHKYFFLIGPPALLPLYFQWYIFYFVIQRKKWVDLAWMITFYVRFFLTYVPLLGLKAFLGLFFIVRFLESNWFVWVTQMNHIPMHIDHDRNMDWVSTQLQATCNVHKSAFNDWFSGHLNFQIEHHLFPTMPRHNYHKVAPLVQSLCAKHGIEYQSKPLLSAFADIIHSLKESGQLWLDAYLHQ

[7] = tested on: Mus musculus; assay: Inhibition of SCD activity in high sucrose/fat free diet fed C57BL/6 mouse assessed as reduction in conversion of [14C]stearic acid to [14C]oleic acid at 30 mg/kg, po; type: functional; settings: C57BL6
[8] = Plasma clearance in Beagle dog at 2 mg/kg, po or 0.5 mg/kg, iv; type: ADME, organism-based, Canis lupus familiaris
[9] = tested on: Mus musculus; assay: Inhibition of SCD activity in high sucrose/fat free diet fed C57BL/6 mouse assessed as reduction in conversion of [14C]stearic acid to [14C]oleic acid at 100 mg/kg, po; type: functional; settings: C57BL6
[10] = Drug level in high sucrose/fat free diet fed C57BL/6 mouse liver at 100 mg/kg, po after 3 hrs post dose; type: ADME, organism-based, C57BL6; parameters: dose 100 mg/kg, route oral; settings: read-out: Drug uptake
[11] = AUC in C57BL/6 mouse plasma at 10 mg/kg, po or 2 mg/kg, iv; type: ADME, organism-based, C57BL6
[12] = Drug level in high sucrose/fat free diet fed C57BL/6 mouse plasma at 30 mg/kg, po after 3 hrs post dose; type: ADME, organism-based, C57BL6; parameters: dose 30 mg/kg, route oral
[13] = Oral bioavailability in Beagle dog at 2 mg/kg, po; type: ADME, organism-based, Canis lupus familiaris; settings: in vivo
[14] = Oral bioavailability in C57BL/6 mouse at 10 mg/kg, po; type: ADME, organism-based, C57BL6; settings: in vivo
[15] = Volume of distribution at steady state in Beagle dog at 2 mg/kg, po or 0.5 mg/kg, iv; type: ADME, organism-based, Canis lupus familiaris; settings: in vivo, read-out: Vdss
[16] = Drug level in high sucrose/fat free diet fed C57BL/6 mouse liver at 30 mg/kg, po after 3 hrs post dose; type: ADME, organism-based, C57BL6; parameters: dose 30 mg/kg, route oral; settings: read-out: Drug uptake
[17] = Volume of distribution at steady state in C57BL/6 mouse at 10 mg/kg, po or 2 mg/kg, iv; type: ADME, organism-based, C57BL6; settings: in vivo, read-out: Vdss
[18] = target: T4, Acyl-CoA (8-3)-desaturase (Rattus norvegicus, UniProt Q920R3); assay: Inhibition of rat Delta(5) fatty acid desaturase by cell based assay
T4 sequence (Q920R3 whole entry): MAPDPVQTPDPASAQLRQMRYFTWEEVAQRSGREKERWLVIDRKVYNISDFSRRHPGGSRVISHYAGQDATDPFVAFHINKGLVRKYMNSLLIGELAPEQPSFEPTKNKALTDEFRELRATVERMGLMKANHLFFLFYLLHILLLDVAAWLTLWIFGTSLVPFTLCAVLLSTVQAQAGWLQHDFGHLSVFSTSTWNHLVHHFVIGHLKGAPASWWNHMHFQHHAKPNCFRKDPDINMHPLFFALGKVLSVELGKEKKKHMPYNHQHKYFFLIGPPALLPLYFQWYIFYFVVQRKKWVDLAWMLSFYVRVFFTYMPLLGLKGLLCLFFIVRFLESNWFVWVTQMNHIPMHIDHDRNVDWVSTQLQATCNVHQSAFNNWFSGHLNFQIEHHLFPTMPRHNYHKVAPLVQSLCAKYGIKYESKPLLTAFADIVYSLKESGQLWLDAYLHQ

[19] = tested on: Mus musculus; assay: Inhibition of SCD activity in po dosed high sucrose/fat free diet fed C57BL/6 mouse assessed as reduction in conversion of [14C]stearic acid to [14C]oleic acid; type: functional, organism-based; settings: C57BL6
[20] = Drug level in high sucrose/fat free diet fed C57BL/6 mouse plasma at 100 mg/kg, po after 3 hrs post dose; type: ADME, organism-based, C57BL6; parameters: dose 100 mg/kg, route oral
[21] = AUC in Beagle dog plasma at 2 mg/kg, po or 0.5 mg/kg, iv; type: ADME, organism-based, Canis lupus familiaris
[22] = target: T4, Acyl-CoA (8-3)-desaturase; assay: Inhibition of Delta(5) fatty acid desaturase in freshly isolated rat hepatocytes; type: cell-based, Hepatocyte
[23] = Plasma clearance in C57BL/6 mouse at 10 mg/kg, po or 2 mg/kg, iv; type: ADME, organism-based, C57BL6

IC50 [1] [nM] | IC50 [2] [nM] | IC50 [3] [nM] | SMILES | further results
227 |  |  | CS(=O)(=O)c1ccc2nc(-c3ccc(-c4ccccc4F)cn3)[nH]c2c1 | 
95 |  |  | CS(=O)(=O)c1ccc2nc(-c3ccc(-c4cccc(Cl)c4F)cc3)[nH]c2c1 | 
21 | 30 | > 20000 | CS(=O)(=O)c1ccc2nc(-c3ccc(-c4cccc(F)c4)cc3)[nH]c2c1 | 
42 | 60 | > 20000 | CS(=O)(=O)c1ccn2cc(-c3ccc(-c4ccccc4)cc3)nc2c1 | 
> 20000 |  |  | CS(=O)(=O)c1ccc2nc(-c3ccc(-c4ccccc4)cc3)cn2c1 | 
697 |  |  | CSc1ccc2nc(-c3ccc(-c4ccccc4F)cc3)[nH]c2c1 | 
> 20000 |  |  | CS(=O)(=O)c1ccc2nc(-c3ccc(-c4ccc(Cl)cc4)cc3)[nH]c2c1 | 
> 20000 |  |  | CS(=O)(=O)c1ccc2nc(-c3ccc(-c4ccccc4)cc3)sc2c1 | 
> 20000 |  |  | Cn1c(-c2ccc(-c3ccccc3F)nc2)nc2ccc(S(C)(=O)=O)cc21 | 
> 20000 | > 20000 | > 20000 | N#Cc1ccc2nc(-c3ccc(-c4ccccc4F)cc3)[nH]c2c1 | 
> 20000 |  |  | Fc1ccccc1-c1ccc(-c2nc3ccccc3[nH]2)cc1 | 
156 |  | > 20000 | CS(=O)(=O)c1cnc2nc(-c3ccc(-c4ccccc4F)cc3)[nH]c2c1 | 
> 20000 |  |  | Cc1ccc(-c2ccc(-c3nc4ccc(S(C)(=O)=O)cc4[nH]3)cc2)cc1 | 
> 20000 |  |  | CS(=O)(=O)c1ccc2nc(-c3ccc(-c4ccc(-c5ccccc5)s4)cc3)[nH]c2c1 | 
472 | 96 | > 20000 | C[S+]([O-])c1ccc2nc(-c3ccc(-c4ccccc4F)cc3)[nH]c2c1 (stereo not drawn) | 
489 |  |  | CS(=O)(=O)c1ccc2nc(-c3cnc(-c4ccccc4)nc3)[nH]c2c1 | 
97 |  | > 20000 | CS(=O)(=O)c1ccc2nc(-c3ccc(-c4cccs4)cc3)[nH]c2c1 | 
58 | 19 | > 20000 | CS(=O)(=O)c1ccc2nc(-c3ccc(-c4ccccc4F)nc3)[nH]c2c1 | 
304 | 2330 | > 20000 | CS(=O)(=O)c1ccc2nc(-c3ccc(-c4ccc(O)cc4)cc3)[nH]c2c1 | 
396 | 342 | > 20000 | CS(=O)(=O)c1ccc2nc(-c3ccc(-c4cccc(O)c4)cc3)[nH]c2c1 | 
> 20000 |  |  | CS(=O)(=O)c1ccc2nc(-c3ccc(Br)cc3)[nH]c2c1 | 

IC50 [1] [nM] | IC50 [2] [nM] | IC50 [3] [nM] | SMILES | further results
528 |  |  | CN(C)S(=O)(=O)c1ccc2nc(-c3ccc(-c4ccccc4F)cc3)[nH]c2c1 | 
319 |  |  | Cc1cccc(-c2ccc(-c3nc4ccc(S(C)(=O)=O)cc4[nH]3)cc2)c1 | 
336 |  |  | CS(=O)(=O)c1ccc2nc(-c3ccc(-c4ccccc4O)cc3)[nH]c2c1 | 
2470 | 4250 | > 20000 | CS(=O)(=O)c1ccc2nc(-c3ccc(-c4ccncc4)cc3)[nH]c2c1 | 
472 |  |  | Cc1ccsc1-c1ccc(-c2nc3ccc(S(C)(=O)=O)cc3[nH]2)cc1 | 
1250 | 1310 | > 20000 | CCS(=O)(=O)c1ccc2nc(-c3ccc(-c4ccccc4F)cc3)[nH]c2c1 | 
175 | 731 | > 20000 | CC(C)(C)c1ccc2nc(-c3ccc(-c4ccccc4F)cc3)[nH]c2c1 | 
425 |  |  | CS(=O)(=O)c1ccc2nc(-c3ccc(-c4cccnc4)cc3)[nH]c2c1 | 
343 | 74 | > 20000 | NS(=O)(=O)c1ccc2nc(-c3ccc(-c4ccccc4F)cc3)[nH]c2c1 | 
148 | 15 | > 10000 | CS(=O)(=O)c1ccc2nc(-c3ccc(-c4cccc(Cl)c4)cc3)[nH]c2c1 | 
1710 | 1760 | > 20000 | CS(=O)(=O)c1ccc2nc(-c3ccc(-c4ccccn4)cc3)[nH]c2c1 | 
2490 |  |  | Cn1c(-c2ccc(-c3ccccc3F)nc2)nc2cc(S(C)(=O)=O)ccc21 | 
25 |  |  | CS(=O)(=O)c1ccc2nc(-c3ccc(-c4ccc(F)cc4)cc3)[nH]c2c1 | 
20 | 24 | > 10000 | CS(=O)(=O)c1ccc2nc(-c3ccc(-c4ccccc4)cc3)[nH]c2c1 | 
278 |  |  | CS(=O)(=O)c1ccc2nc(-c3ccc(-c4cc(Cl)ccc4F)cc3)[nH]c2c1 | 
3860 |  |  | Cc1ccccc1-c1ccc(-c2nc3ccc(S(C)(=O)=O)cc3[nH]2)cc1 | 
65 | 27 | > 20000 | CS(=O)(=O)c1ccc2nc(-c3ccc(-c4ccccc4F)cc3)[nH]c2c1 | half-life [4]: 1.1 h; half-life [5]: 35.5 h; IC50 [6]: 1320 nM; inhibition in vivo at 30 mg/kg [7]: 36%; clearance [8]: 26 mL/min/kg; inhibition in vivo at 100 mg/kg [9]: 78%; concentration at 3 h [10]: 31.9 µM; AUC [11]: 8 µM·h; concentration at 3 h [12]: 6.5 µM; bioavailability [13]: 70%; bioavailability [14]: 39%; Vd [15]: 2 L/kg; concentration at 3 h [16]: 10.1 µM; Vd [17]: 2.9 L/kg; IC50 [18]: > 50000 nM; inhibition [19]: Dose-dependent effect; concentration at 3 h [20]: 13.2 µM; AUC [21]: 2.4 µM·h; IC50 [22]: 5170 nM; clearance [23]: 20 mL/min/kg
4490 | 255 | > 20000 | CS(=O)(=O)c1ccc2nc(-c3ccc(-c4ccccc4Cl)cc3)[nH]c2c1 | 
401 |  |  | O=S(=O)(c1ccc2nc(-c3ccc(-c4ccccc4F)cc3)[nH]c2c1)C1CC1 | 
104 |  |  | CS(=O)(=O)c1ccc2nc(-c3ccc(-c4ccsc4)cc3)[nH]c2c1 | 
395 | 1700 | > 20000 | CS(=O)(=O)c1ccc2nc(-c3ccc(-c4ccoc4)cc3)[nH]c2c1 | 
